Values quoted from earlier work in US20110066230A1, “Fluorinated GHRH Antagonists” (priority 2009, published 2011).

Experiments:
pituitary receptors = target: T1, pituitary receptors (Homo sapiens, UniProt Q02643); settings: biological activity on the pituitary
T1 sequence (Q02643 23-423): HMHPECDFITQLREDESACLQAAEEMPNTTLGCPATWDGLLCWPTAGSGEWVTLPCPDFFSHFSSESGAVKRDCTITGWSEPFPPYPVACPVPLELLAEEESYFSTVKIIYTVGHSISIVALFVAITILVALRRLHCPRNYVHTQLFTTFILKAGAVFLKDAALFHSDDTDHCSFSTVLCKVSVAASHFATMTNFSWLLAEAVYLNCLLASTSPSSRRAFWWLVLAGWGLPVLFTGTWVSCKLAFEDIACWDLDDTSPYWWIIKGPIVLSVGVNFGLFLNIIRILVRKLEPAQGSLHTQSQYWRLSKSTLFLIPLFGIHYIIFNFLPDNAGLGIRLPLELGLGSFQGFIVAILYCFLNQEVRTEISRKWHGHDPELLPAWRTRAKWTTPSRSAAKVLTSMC

[1] = system: rat anterior pituitary adenylate cyclase
[2] = normal subjects, large doses (400 μg/kg)

Substance	potency retained relative to native GH-RH (pituitary receptors) [%]	activation of rat anterior pituitary adenylate cyclase by hGH-RH(1-29)NH2 [1]	GH levels (GH secretion; a patient with acromegaly)	nocturnal GH secretion (GH secretion; [2])	response to GH-RH (GH secretion; [2])
Tyr-Ala-Asp-Ala-Ile^5-Phe-Thr-Asn-Ser-Tyr^10-Arg-Lys-Val-Leu-Gly^15-Gln-Leu-Ser-Ala-Arg^20-Lys-Leu-Leu-Gln-Asp^25-Ile-Met-Ser-Arg^29-NH2 [GH-RH(1-29)]	≥ 50				
[Ac-Tyr^1,D-Arg^2]hGH-RH(1-29)NH2 [standard antagonist]		prevent the activation	reduced GH levels	eliminated nocturnal GH secretion	inhibited the response to GH-RH
